Experimental data as given in patent US11839212B2, “Synergistic pesticidal compositions and methods for delivery of insecticidal active ingredients” (0903608 B.C. Ltd., priority 2018, dated 2023).
Where two headings read alike, the source gives them in different places. Blank lines part the entries; values can stand above or below the molecule they belong to.

How the values were obtained:
Experiment in all cases: Synergistic Growth Inhibition Assay (MIC and FIC index, 96-well, resazurin)
Type in all cases: cell-based
Botrytis cinerea = settings: Botrytis cinerea, 48 h, 48 hours incubation
Description: (§1) In some embodiments, the synergistic action between the pesticidal active ingredient, and the at least one C6-C10 (or alternatively C11 or C12) saturated or unsaturated aliphatic acid components of the pesticidal compositions according to embodiments of the present disclosure was tested using a Synergistic Growth Inhibition Assay, which is derived from and related to a checkerboard assay as is known in the art for testing of combinations of antimicrobial agents. In the Synergistic Growth Inhibition Assay used in accordance with some embodiments of the present disclosure, multiple dilutions of combinations of pesticidal active ingredient and at least one C6-C10 saturated or unsaturated aliphatic acid agents are tested in individual cells for inhibitory activity against a target pest or pathogenic organism. In one such embodiment, the combinations of pesticidal active ingredient and C6-C10 (or alternatively C11 or C12) saturated or unsaturated aliphatic acid agents may preferably be tested in decreasing concentrations. In a further such embodiment, the combinations of pesticidal active ingredient and C6-C10 (or alternatively C11 or C12) saturated or unsaturated aliphatic acid agents may be tested in increasing concentrations. These multiple combinations of the pesticidal active ingredient and at least one C6-C10 (or alternatively C11 or C12) saturated or unsaturated aliphatic acid agents may be prepared in 96-well microtiter plates. In one such embodiment, the Synergistic Growth Inhibition Assay then comprises rows which each contain progressively decreasing concentrations of the pesticidal active ingredient and one or more C6-C10 (or alternatively C11 or C12) saturated or unsaturated aliphatic acid agents to test for the MIC of the agents in combination at which growth of the target pest or pathogen is inhibited. Thus, each well of the microtiter plate is a unique combination of the two agents, at which inhibitory efficacy of the combination against the target pest or pathogen can be determined.
(§2) In one embodiment according to the present disclosure, for each row of microtiter cells in the Synergistic Growth Inhibition Assay, the FIC index is calculated from the lowest concentration of the pesticidal active ingredient and one or more C6-C10 saturated or unsaturated aliphatic acid agents necessary to inhibit growth of a target pest or pathogen. The FIC of each component is derived by dividing the concentration of the agent present in that well of the microtiter plate by the minimal inhibitory concentration (MIC) needed of that agent alone to inhibit growth of the target pest or pathogen. The FIC index is then the sum of these values for both agents in that well of the microtiter plate. […] Fractional inhibitory concentration indices may then used as measure of synergy. […] When the FIC index is equal to 1, the combination is additive.
(§3) Then, serial dilutions of these initial compositions in successive wells in the row of the microtiter plate were used to assay the pesticidal composition under the same conditions to determine the concentration of the composition combining the two agents corresponding to the microtiter well in which growth inhibition of the target pest or organism ceases.
(§4) Similarly to as described above, Resazurin was used as an indicator of growth or inhibition of growth of Botrytis cinerea in the exemplary Synergistic Growth Inhibition Assay. In addition to the color change of the resazurin, an optical or visual examination of the microtiter well may also be made to additionally determine the presence of growth or inhibition of growth of the Botrytis cinerea.

Sclerotinia sclerotiorum = settings: Sclerotinia sclerotiorum, […]
Description: as §1, §2, §3
as §4, with “Sclerotinia sclerotiorum” for “Botrytis cinerea”, “Sclerotinia sclerotiorum.” for “Botrytis cinerea.”

Alternaria solani = settings: for MIC: Alternaria solani
Description: as §1, §2, §3
A culture of the representative fungal pathogen, namely Fusarium oxysporum, Botrytis cinerea, or Sclerotinia sclerotiorum, for example, is grown to exponential phase in potato dextrose broth (PDB).

Fusarium oxysporum = settings: Fusarium oxysporum, Compound B alone
Description: as §1, §2, §3
Resazurin dye (also known as Alamar blue dye) was used as an indicator to determine the presence of growth or inhibition of growth of Fusarium oxysporum in the wells of the 96 well microtiter plates used in the exemplary Synergistic Growth Inhibition Assay. In addition to the color change of the resazurin dye in the presence of growth of the Fusarium oxysporum, an optical or visual examination of the microtiter well may also be made to additionally determine the presence of growth or inhibition of growth of the Fusarium oxysporum.

[1] = Table 51, Compound B alone, read-out: MIC (B)
[2] = Compound B alone, 7 days incubation, read-out: MIC (B)
[3] = 48 h, Table 27, 48 hours incubation, read-out: MIC (B)
[4] = 48 h, Table 30, 48 hours incubation, read-out: MIC (B)
[5] = 48 h, Table 32, 48 hours incubation, read-out: MIC (B)
[6] = Table 60, Compound B alone, 7 days incubation, read-out: MIC (B)
[7] = 48 h, Table 28, 48 hours incubation, read-out: MIC (B)
[8] = 48 h, Table 29, 48 hours incubation, read-out: MIC (B)
[9] = 48 h, Table 31, 48 hours incubation, read-out: MIC (B)
[10] = Table 43, Compound B alone, read-out: MIC (B)
[11] = Table 44, Compound B alone, read-out: MIC (B)
[12] = Table 47, Compound B alone, read-out: MIC (B)
[13] = Table 49, Compound B alone, read-out: MIC (B)
[14] = Table 33, Compound B alone, 7 days incubation, read-out: MIC (B)
[15] = Table 35, Compound B alone, 7 days incubation, read-out: MIC (B)
[16] = Table 41, Compound B alone, 7 days incubation, read-out: MIC (B)
[17] = Compound A alone, 7 days incubation, read-out: MIC (A)
[18] = Table 56, Compound B alone, read-out: MIC (B)
[19] = Table 59, Compound B alone, read-out: MIC (B)
[20] = Table 16, Compound B alone, incubation 7 days, read-out: MIC (B)
[21] = Table 45, Compound B alone, read-out: MIC (B)
[22] = Table 50, Compound B alone, read-out: MIC (B)
[23] = Table 54, Compound B alone, read-out: MIC (B)
[24] = 24 h, Table 3, 24 hour incubation, read-out: MIC(B)
[25] = 24 h, Table 4, 24 hour incubation, read-out: MIC (B)

MIC (Botrytis cinerea; [1]): 625 µg/mL | MIC (Sclerotinia sclerotiorum; [2]): 625 µg/mL | MIC (Alternaria solani; [2]): 625 µg/mL
SMILES: CCCCCCC(O)C(=O)O (stereo not shown) [2-Hydroxyoctanoic acid]

MIC (Fusarium oxysporum; [3]): 156 µg/mL | MIC (Fusarium oxysporum; [4]): 156 µg/mL | MIC (Fusarium oxysporum; [5]): 156 µg/mL | MIC (Alternaria solani; [2]): 156 µg/mL | MIC (Alternaria solani; [6]): 156 µg/mL
SMILES: CCCC/C=C/CC(=O)O [Trans-3-octenoic acid]

MIC (Fusarium oxysporum; [3]): 312 µg/mL | MIC (Botrytis cinerea; [10]): 156 µg/mL | MIC (Botrytis cinerea; [11]): 78.1 µg/mL | MIC (Botrytis cinerea; [21]): 312 µg/mL | MIC (Botrytis cinerea; [22]): 156 µg/mL | MIC (Botrytis cinerea; [23]): 312 µg/mL | MIC (Sclerotinia sclerotiorum; [14]): 156 µg/mL | MIC (Sclerotinia sclerotiorum; [15]): 156 µg/mL | MIC (Alternaria solani; [6]): 312 µg/mL
SMILES: C=CCCCC(=O)O [5-Hexenoic acid]

MIC (Fusarium oxysporum; [24]): 147 µg/mL | MIC (Fusarium oxysporum; [25]): 147 µg/mL | MIC (Fusarium oxysporum; [4]): 156 µg/mL | MIC (Fusarium oxysporum; [9]): 156 µg/mL | MIC (Fusarium oxysporum; [5]): 156 µg/mL | MIC (Alternaria solani; [6]): 156 µg/mL
SMILES: CCCCC=CCC(=O)O [3-Octenoic acid, 3-octenoic acid]

MIC (Fusarium oxysporum; [24]): 73.4 µg/mL | MIC (Fusarium oxysporum; [25]): 73.4 µg/mL | MIC (Fusarium oxysporum; [3]): 312 µg/mL | MIC (Fusarium oxysporum; [7]): 78.1 µg/mL | MIC (Fusarium oxysporum; [8]): 156 µg/mL | MIC (Fusarium oxysporum; [9]): 78.1 µg/mL | MIC (Botrytis cinerea; [10]): 78.1 µg/mL | MIC (Botrytis cinerea; [11]): 78.1 µg/mL | MIC (Botrytis cinerea; [21]): 78.1 µg/mL | MIC (Botrytis cinerea; [12]): 78.1 µg/mL | MIC (Botrytis cinerea; [13]): 78.1 µg/mL | MIC (Botrytis cinerea; [22]): 78.1 µg/mL | MIC (Botrytis cinerea; Table 53, Compound B alone, read-out: MIC (B)): 39.1 µg/mL | MIC (Botrytis cinerea; [23]): 39.1 µg/mL | MIC (Botrytis cinerea; [18]): 78.1 µg/mL | MIC (Botrytis cinerea; Table 58, Compound B alone, read-out: MIC (B)): 156 µg/mL | MIC (Sclerotinia sclerotiorum; [2]): 156 µg/mL | MIC (Sclerotinia sclerotiorum; [14]): 39.1 µg/mL | MIC (Sclerotinia sclerotiorum; [15]): 39.1 µg/mL | MIC (Sclerotinia sclerotiorum; Table 38, Compound B alone, 7 days incubation, read-out: MIC (B)): 39.1 µg/mL | MIC (Sclerotinia sclerotiorum; Table 40, Compound B alone, 7 days incubation, read-out: MIC (B)): 78.1 µg/mL | MIC (Sclerotinia sclerotiorum; [16]): 78.1 µg/mL | MIC (Alternaria solani; [6]): 78.1 µg/mL
SMILES: CCCCCCC=CCC(=O)O [3-Decenoic acid, 3-decenoic acid]

MIC (Botrytis cinerea; Table 24, Compound B alone, read-out: MIC (B)): 156 µg/mL | MIC (Sclerotinia sclerotiorum; [20]): 39.1 µg/mL | MIC (Sclerotinia sclerotiorum; Table 17, Compound B alone, incubation 7 days, read-out: MIC (B)): 39.1 µg/mL | MIC (Sclerotinia sclerotiorum; Table 19, Compound B alone, incubation 7 days, read-out: MIC (B)): 39.1 µg/mL | MIC (Alternaria solani; [2]): 156 µg/mL | MIC (Alternaria solani; [6]): 156 µg/mL
SMILES: CCCCCCC(=O)O [Heptanoic acid, heptanoic acid]

MIC (Fusarium oxysporum; [3]): 312 µg/mL | MIC (Fusarium oxysporum; [4]): 312 µg/mL | MIC (Fusarium oxysporum; [5]): 156 µg/mL | MIC (Alternaria solani; [2]): 156 µg/mL
SMILES: C=CCCCCCC(=O)O [7-Octenoic acid]

MIC (Botrytis cinerea; [1]): 156 µg/mL | MIC (Botrytis cinerea; [19]): 156 µg/mL | MIC (Sclerotinia sclerotiorum; [2]): 156 µg/mL | MIC (Alternaria solani; [2]): 156 µg/mL
SMILES: CCCCC(CC)C(=O)O (stereo not shown) [2-Ethylhexanoic acid]

MIC (Sclerotinia sclerotiorum; Table 34, Compound B alone, 7 days incubation, read-out: MIC (B)): 156 µg/mL | MIC (Alternaria solani; [2]): 312 µg/mL
SMILES: CC/C=C\CC(=O)O [Cis-3-hexenoic acid]

Second part, the molecule before the results:

SMILES: CCCC=CCC(=O)O [3-Heptenoic acid]
MIC (Fusarium oxysporum; [3]): 156 µg/mL | MIC (Fusarium oxysporum; [7]): 156 µg/mL | MIC (Fusarium oxysporum; [8]): 156 µg/mL | MIC (Fusarium oxysporum; [4]): 156 µg/mL | MIC (Fusarium oxysporum; [9]): 156 µg/mL | MIC (Botrytis cinerea; [10]): 78.1 µg/mL | MIC (Botrytis cinerea; [11]): 78.1 µg/mL | MIC (Botrytis cinerea; [12]): 78.1 µg/mL | MIC (Botrytis cinerea; [13]): 78.1 µg/mL | MIC (Sclerotinia sclerotiorum; [2]): 156 µg/mL | MIC (Sclerotinia sclerotiorum; [14]): 78.1 µg/mL | MIC (Sclerotinia sclerotiorum; [15]): 78.1 µg/mL | MIC (Sclerotinia sclerotiorum; Table 39, Compound B alone, 7 days incubation, read-out: MIC (B)): 78.1 µg/mL | MIC (Sclerotinia sclerotiorum; [16]): 78.1 µg/mL | MIC (Alternaria solani; [6]): 312 µg/mL

SMILES: OC(Cc1ccccc1Cl)(Cn1nc[nH]c1=S)C1(Cl)CC1 (stereo not shown) [Prothioconazole, reference compound]
MIC (Botrytis cinerea; Table 57, Compound A alone, read-out: MIC (A)): 31.2 µg/mL | MIC (Sclerotinia sclerotiorum; [17]): 62.5 µg/mL | MIC (Alternaria solani; [17]): 500 µg/mL

SMILES: CC(O)CC(=O)O (stereo not shown) [3-Hydroxybutyric acid, 3-hydroxybutyric acid]
MIC (Fusarium oxysporum; 48 h, Table 10, incubation 48 hours, read-out: MIC (B)): 10000 µg/mL | MIC (Fusarium oxysporum; 48 h, Table 15B, incubation 48 hours, read-out: MIC (B)): 10000 µg/mL | MIC (Botrytis cinerea; [1]): 10000 µg/mL | MIC (Botrytis cinerea; [18]): 10000 µg/mL | MIC (Botrytis cinerea; [19]): 5000 µg/mL | MIC (Sclerotinia sclerotiorum; [20]): 10000 µg/mL | MIC (Sclerotinia sclerotiorum; Table 20B, Compound B alone, incubation 7 days, read-out: MIC (B)): 5000 µg/mL | MIC (Alternaria solani; [2]): 5000 µg/mL

SMILES: O=C(O)CCCCCCCCCO [10-Hydroxydecanoic acid]
MIC (Botrytis cinerea; read-out: MIC (B), Table 51, Compound B alone): 250 µg/mL | MIC (Botrytis cinerea; read-out: MIC (B), Table 59, Compound B alone): 250 µg/mL | MIC (Sclerotinia sclerotiorum; read-out: MIC (B), Compound B alone, 7 days incubation): 500 µg/mL | MIC (Alternaria solani; read-out: MIC (B)): 1000 µg/mL

SMILES: CC(C)CC(=O)O [3-Methylbutyric acid]
MIC (Botrytis cinerea; [1]): 312 µg/mL | MIC (Botrytis cinerea; [19]): 312 µg/mL | MIC (Sclerotinia sclerotiorum; [2]): 625 µg/mL | MIC (Alternaria solani; [2]): 312 µg/mL

SMILES: CC(C)CC(C)c1sccc1NC(=O)c1cn(C)nc1C(F)(F)F (stereo not shown) [Penthiopyrad, reference compound]
MIC (Botrytis cinerea; Table 56, Compound A alone, read-out: MIC (A)): 250 µg/mL | MIC (Sclerotinia sclerotiorum; [17]): 500 µg/mL | MIC (Alternaria solani; [17]): 500 µg/mL

SMILES: CCC(O)C(=O)O (stereo not shown) [2-Hydroxybutyric acid]
MIC (Botrytis cinerea; [1]): 5000 µg/mL | MIC (Botrytis cinerea; [18]): 2500 µg/mL | MIC (Botrytis cinerea; Table 57, Compound B alone, read-out: MIC (B)): 2500 µg/mL | MIC (Botrytis cinerea; [19]): 2500 µg/mL | MIC (Sclerotinia sclerotiorum; [2]): 5000 µg/mL | MIC (Alternaria solani; [2]): 2500 µg/mL | MIC (B) (Alternaria solani; Compound B alone, 7 days incubation): 2500 µg/mL
